Results taken from patent US20110053773A1, “METHODS OF IMPROVING NUTRITIONAL VALUE OF PLANTS” (UNIVERSITY OF TENNESSEE RESEARCH FOUNDATION, priority 2009, published 2011).

What was measured:
Format in all cases: in vivo
[1] = tested on: sweet corn variety WH0809; assay: Visual injury of sweet corn after POST herbicide inhibitors of photosynthesis (Example 2)
Experimental: (§1) A field study was conducted at Greenback, TN to investigate POST applications of several herbicide inhibitors of photosynthesis for sweet corn safety and for changes in carbohydrate content in the kernels of sweet corn among treatments. Treatments included bentazon at 1120 and 2240 g ai/ha, linuron at 280 and 560 g ai/ha, metribuzin at 105 and 210 g ai/ha, and bromoxynil at 560 and 1120 g ai/ha. All treatments included a PRE application of a common residual corn herbicide in order to maintain weed free conditions. […] Sweet corn was harvested from the center two rows of each four row plot and weighed in the husk. Eight ears of corn were harvested from each plot and were pooled over replicates for analysis of key carbohydrates which included the sugars sucrose, fructose, glucose, maltose, and raffanose.

[2] = tested on: sweet corn variety WH0809; assay: Sweet corn yield, harvested and weighed in the husk (Example 2); settings: treated check 9758.4
Experimental: as §1

[3] = tested on: sweet corn variety WH0809; assay: Sugar content of sweet corn kernels (Example 2); settings: for Sugar content Raffanose: treated check 0.51; for Sugar content Maltose: treated check 0.61; for Sugar content Fructose: treated check 1.04; for Sugar content Glucose: treated check 1.91; for Sugar content Sucrose: treated check 10.72
Experimental: as §1

[4] = 560 g ai/ha + COC 1% v/v POST, 1st of 3 Injury columns, rating date not given
[5] = 560 g ai/ha + COC 1% v/v POST, 2nd of 3 Injury columns (agrees with 14 DAT of b67)
[6] = 560 g ai/ha + COC 1% v/v POST, 3rd of 3 Injury columns, rating date not given
[7] = 1120 g ai/ha + COC 1% v/v POST, 1st of 3 Injury columns, rating date not given
[8] = 1120 g ai/ha + COC 1% v/v POST, 2nd of 3 Injury columns (agrees with 14 DAT of b67)
[9] = 1120 g ai/ha + COC 1% v/v POST, 3rd of 3 Injury columns, rating date not given

## CSc1nnc(C(C)(C)C)c(=O)n1N [METRIBUZIN, metribuzin]
[1]; 105 g ai/ha + COC 1% v/v POST, 1st of 3 Injury columns, rating date not given
  Injury: 12%
[1]; 105 g ai/ha + COC 1% v/v POST, 2nd of 3 Injury columns (agrees with 14 DAT of b67)
  Injury: 13%
[1]; 105 g ai/ha + COC 1% v/v POST, 3rd of 3 Injury columns, rating date not given
  Injury: 5%
[1]; 210 g ai/ha + COC 1% v/v POST, 1st of 3 Injury columns, rating date not given
  Injury: 17%
[1]; 210 g ai/ha + COC 1% v/v POST, 2nd of 3 Injury columns (agrees with 14 DAT of b67)
  Injury: 30%
[1]; 210 g ai/ha + COC 1% v/v POST, 3rd of 3 Injury columns, rating date not given
  Injury: 22%
[2]; 105 g ai/ha + COC 1% v/v POST
  YIELD: 10715.4 kg
[2]; 210 g ai/ha + COC 1% v/v POST
  YIELD: 8967.5 kg
[3]; 105 g ai/ha + COC 1% v/v POST
  Sugar content Raffanose: 0.36 mg/g dw
  Sugar content Maltose: 0.49 mg/g dw
  Sugar content Fructose: 1.04 mg/g dw
  Sugar content Glucose: 1.79 mg/g dw
  Sugar content Sucrose: 9.35 mg/g dw
[3]; 210 g ai/ha
  fructose increase compared to the untreated check: 115%
  glucose increase compared to the untreated check: 106%
  maltose increase compared to the untreated check: 74%
  raffanose increase compared to the untreated check: 59%
  sucrose increase compared to the untreated check: 103%
[3]; 210 g ai/ha + COC 1% v/v POST
  Sugar content Raffanose: 0.81 mg/g dw
  Sugar content Maltose: 1.06 mg/g dw
  Sugar content Fructose: 2.24 mg/g dw
  Sugar content Glucose: 3.93 mg/g dw
  Sugar content Sucrose: 21.79 mg/g dw

## CON(C)C(=O)Nc1ccc(Cl)c(Cl)c1 [LINURON, linuron]
[1]; 280 g ai/ha + COC 1% v/v POST, 1st of 3 Injury columns, rating date not given
  Injury: 25%
[1]; 280 g ai/ha + COC 1% v/v POST, 2nd of 3 Injury columns (agrees with 14 DAT of b67)
  Injury: 22%
[1]; 280 g ai/ha + COC 1% v/v POST, 3rd of 3 Injury columns, rating date not given
  Injury: 25%
[1]; [4]
  Injury: 38%
[1]; [5]
  Injury: 35%
[1]; [6]
  Injury: 27%
[2]; 280 g ai/ha + COC 1% v/v POST
  YIELD: 8062.6 kg
[2]; 560 g ai/ha + COC 1% v/v POST
  YIELD: 9227.9 kg
[3]; 280 g ai/ha + COC 1% v/v POST
  Sugar content Raffanose: 0.64 mg/g dw
  Sugar content Maltose: 0.95 mg/g dw
  Sugar content Fructose: 1.86 mg/g dw
  Sugar content Glucose: 3.22 mg/g dw
  Sugar content Sucrose: 12.02 mg/g dw
[3]; 560 g ai/ha + COC 1% v/v POST
  Sugar content Raffanose: 0.48 mg/g dw
  Sugar content Maltose: 0.59 mg/g dw
  Sugar content Fructose: 1.39 mg/g dw
  Sugar content Glucose: 2.33 mg/g dw
  Sugar content Sucrose: 13.30 mg/g dw

## N#Cc1cc(Br)c(O)c(Br)c1 [BROMOXYNIL, bromoxynil]
[1]; [4]
  Injury: 37%
[1]; [5]
  Injury: 35%
[1]; [6]
  Injury: 27%
[1]; [7]
  Injury: 45%
[1]; [8]
  Injury: 47%
[1]; [9]
  Injury: 35%
[2]; 560 g ai/ha + COC 1% v/v POST
  YIELD: 9436.2 kg
[2]; 1120 g ai/ha + COC 1% v/v POST
  YIELD: 9142.6 kg
[3]; 560 g ai/ha + COC 1% v/v POST
  Sugar content Raffanose: 0.77 mg/g dw
  Sugar content Maltose: 0.88 mg/g dw
  Sugar content Fructose: 1.74 mg/g dw
  Sugar content Glucose: 3.07 mg/g dw
  Sugar content Sucrose: 15.56 mg/g dw
[3]; 1120 g ai/ha + COC 1% v/v POST
  Sugar content Raffanose: 0.54 mg/g dw
  Sugar content Maltose: 0.60 mg/g dw
  Sugar content Fructose: 1.77 mg/g dw
  Sugar content Glucose: 2.70 mg/g dw
  Sugar content Sucrose: 14.50 mg/g dw

## CC(C)N1C(=O)c2ccccc2NS1(=O)=O [BENTAZON, bentazon]
[1]; [7]
  Injury: 5%
[1]; [8]
  Injury: 17%
[1]; [9]
  Injury: 0%
[1]; 2240 g ai/ha + COC 1% v/v POST, 1st of 3 Injury columns, rating date not given
  Injury: 12%
[1]; 2240 g ai/ha + COC 1% v/v POST, 2nd of 3 Injury columns (agrees with 14 DAT of b67)
  Injury: 10%
[1]; 2240 g ai/ha + COC 1% v/v POST, 3rd of 3 Injury columns, rating date not given
  Injury: 2%
[2]; 1120 g ai/ha + COC 1% v/v POST
  YIELD: 10317 kg
[2]; 2240 g ai/ha + COC 1% v/v POST
  YIELD: 10565.6 kg
[3]; 1120 g ai/ha + COC 1% v/v POST
  Sugar content Raffanose: 0.56 mg/g dw
  Sugar content Maltose: 0.96 mg/g dw
  Sugar content Fructose: 1.69 mg/g dw
  Sugar content Glucose: 2.65 mg/g dw
  Sugar content Sucrose: 13.18 mg/g dw
[3]; 2240 g ai/ha + COC 1% v/v POST
  Sugar content Raffanose: 0.84 mg/g dw
  Sugar content Maltose: 1.26 mg/g dw
  Sugar content Fructose: 1.78 mg/g dw
  Sugar content Glucose: 3.41 mg/g dw
  Sugar content Sucrose: 18.67 mg/g dw
